pIC50: −log10 of the molar value.
How the values were obtained:
[1] = test system: pERK after EGF stimulation in DLD1 cells; test: ERK phosphorylation assay (alphascreen pERK); assay type: cell-based; details: Homo sapiens, DLD-1, 2 h compound, 200 ng/ml hEGF for 5 minutes, read-out: ERK phosphorylation inhibition IC50
How it was run: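 DLD1 cells pretreated with test compounds for 2 h, then stimulated with 200 ng/ml hEGF for 5 min. Lysates assayed by AlphaScreen SureFire for ERK1/2 p-T202/Y204, read after 2 h at 25–28 °C. % inhibition relative to the stimulated-minus-unstimulated vehicle window.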

[2] = molecular target: T1, nucleotide exchange on hKRASG12C mediated by hSOS1 (Homo sapiens, UniProt Q07889); test: Guanine nucleotide exchange assay (GNEA, HTRF); assay type: biochemical; details: HIS-hSOS1 564-1049aa mediated GTP loading onto GST-hKRASG12C 1-169aa, read-out: Guanine nucleotide exchange inhibition IC50
T1 construct: HIS-hSOS1, 564-1049aa mediated GTP loading onto GST-hKRASG12C; His (N); made in house
T1 sequence (Q07889 564-1049): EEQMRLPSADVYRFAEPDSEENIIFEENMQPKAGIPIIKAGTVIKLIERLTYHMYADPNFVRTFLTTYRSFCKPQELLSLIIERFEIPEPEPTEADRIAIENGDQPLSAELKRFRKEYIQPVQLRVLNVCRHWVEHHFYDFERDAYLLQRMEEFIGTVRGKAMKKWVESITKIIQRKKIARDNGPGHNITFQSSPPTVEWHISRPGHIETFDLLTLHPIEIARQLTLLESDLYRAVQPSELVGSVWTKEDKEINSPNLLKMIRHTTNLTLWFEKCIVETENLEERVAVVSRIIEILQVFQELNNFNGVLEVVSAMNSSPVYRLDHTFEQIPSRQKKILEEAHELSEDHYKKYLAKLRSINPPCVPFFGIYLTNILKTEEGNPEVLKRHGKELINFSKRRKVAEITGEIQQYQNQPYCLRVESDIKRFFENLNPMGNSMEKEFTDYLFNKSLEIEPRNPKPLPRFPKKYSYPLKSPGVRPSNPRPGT
How it was run: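 Compounds were pre-incubated 10 min at 20 °C with HIS-hSOS1 (564-1049aa) and EDA-GTP-DY-647P1 (working solution 10-50 nM and 200 nM) in pH 7.4 HEPES with NaCl, MgCl2, DTT, BSA and Igepal. GST-hKRASG12C (1-169aa, 25-125 nM working solution) plus anti-GST-Tb was added for 30-60 min at 20 °C. Percent inhibition came from the HTRF 665/620 nm ratio.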

[3] = molecular target: T2, protein-protein interaction between hSOS1 and hKRASG12C (Homo sapiens, UniProt Q07889); test: KRAS-SOS1 interaction assay (HTRF); assay type: binding; details: GST-hSOS1 564-1049aa, HIS-hKRASG12C, read-out: KRAS-SOS1 Interaction inhibition IC50
T2 construct: GST-hSOS1, 564-1049aa expressed and purified in-house
T2 sequence (Q07889 564-1049): T1 sequence (Q07889 564-1049)
How it was run: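 GST-hSOS1 (564-1049aa) at 10-50 nM working solution pre-incubated with compounds 10 min at 20° C in HEPES pH 7.4 buffer with EDTA, DTT, BSA and Igepal. HIS-hKRASG12C (100-300 nM working solution) added for 30-60 min, then anti-GST-d2/anti-HIS-Tb detection; percent inhibition from the 665/620 nm ratio.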

Cc1nc(N[C@H](C)c2cccc(C(F)(F)CO)c2F)c2cc3c(cc2n1)N(C)C(=O)C31CC1 [Compound 66, (R)-4′-((1-(3-(1,1-difluoro-2-hydroxyethyl)-2-fluorophenyl)ethyl)amino)-2′,8′-dimethylspiro [cyclopropane-1,6′-pyrrolo[3,2-g]quinazolin]-7′(8′H)-one]
pIC50 [1]: 6.70 to 9.00 | pIC50 [2]: 7.52 to 9.00 | pIC50 [3]: 8.00 to 9.00

Cc1nc(N[C@H](C)c2cc(N)cc(C(F)(F)F)c2)c2cc3c(cc2n1)C(C)(C)C(=O)N3C [Compound 70, (R)-4-((1-(3-amino-5-(trifluoromethyl)phenyl)ethyl)amino)-2,6,8,8-tetramethyl-6H-pyrrolo[2,3-g]quinazolin-7(8H)-one]
pIC50 [1]: 6.70 to 9.00 | pIC50 [2]: 6.89 to 7.51 | pIC50 [3]: 8.00 to 9.00

Cc1nc(N[C@H](C)c2cccc(C(F)(F)C(C)(C)O)c2F)c2cc3c(cc2n1)C(C)(C)CN3C [Compound 75, (R)-1,1-difluoro-1-(2-fluoro-3-(1-((2,6,8,8-tetramethyl-7,8-dihydro-6H-pyrrolo[2,3-g]quinazolin-4-yl)amino)ethyl)phenyl)-2-methylpropan-2-ol]
pIC50 [1]: 6.70 to 9.00 | pIC50 [2]: 6.89 to 7.51 | pIC50 [3]: 7.60 to 7.96

Cc1nc(N[C@H](C)c2cccc(C(F)(F)CO)c2F)c2cc3c(cc2n1)N(C)C(=O)C3(C)C [Compound 80, (R)-4-((1-(3-(1,1-difluoro-2-hydroxyethyl)-2-fluorophenyl)ethyl)amino)-2,6,6,8-tetramethyl-6,8-dihydro-7H-pyrrolo[3,2-g]quinazolin-7-one]
pIC50 [1]: 6.70 to 9.00 | pIC50 [2]: 7.52 to 9.00 | pIC50 [3]: 8.00 to 9.00

CCc1nc(N[C@H](C)c2cccc(C(F)(F)C(C)(C)O)c2F)c2cc3c(cc2n1)N(C)C(=O)C3(C)C [Compound 86, (R)-4-((1-(3-(1,1-difluoro-2-hydroxy-2-methylpropyl)-2-fluorophenyl)ethyl)amino)-2-ethyl-6,6,8-trimethyl-6,8-dihydro-7H-pyrrolo[3,2-g]quinazolin-7-one]
pIC50 [1]: 6.70 to 9.00 | pIC50 [2]: 6.89 to 7.51 | pIC50 [3]: 8.00 to 9.00

CCN1C(=O)C(C)(C)c2cc3c(N[C@H](C)c4cccc(C(F)(F)CO)c4F)nc(C)nc3cc21 [Compound 88, (R)-4-((1-(3-(1,1-difluoro-2-hydroxyethyl)-2-fluorophenyl)ethyl)amino)-8-ethyl-2,6,6-trimethyl-6,8-dihydro-7H-pyrrolo[3,2-g]quinazolin-7-one]
pIC50 [1]: 6.70 to 9.00 | pIC50 [2]: 7.52 to 9.00 | pIC50 [3]: 8.00 to 9.00

Cc1nc(N[C@H](C)c2cccc(C(F)(F)C(C)(C)O)c2F)c2cc3c(c(C)c2n1)N(C)C(=O)C3(C)C [Compound 90, (R)-4-((1-(3-(1,1-difluoro-2-hydroxy-2-methylpropyl)-2-fluorophenyl)ethyl)amino)-2,6,6,8,9-pentamethyl-6,8-dihydro-7H-pyrrolo[3,2-g]quinazolin-7-one]
pIC50 [1]: 6.70 to 9.00 | pIC50 [2]: 6.89 to 7.51 | pIC50 [3]: 8.00 to 9.00

CCC1(CC)C(=O)N(C)c2cc3nc(C)nc(N[C@H](C)c4cccc(C(F)(F)C(C)(C)O)c4F)c3cc21 [Compound 91, (R)-4-((1-(3-(1,1-difluoro-2-hydroxy-2-methylpropyl)-2-fluorophenyl)ethyl)amino)-6,6-diethyl-2,8-dimethyl-6,8-dihydro-7H-pyrrolo[3,2-g]quinazolin-7-one]
pIC50 [1]: 6.70 to 9.00 | pIC50 [2]: 6.89 to 7.51 | pIC50 [3]: 7.60 to 7.96

Cc1nc(N[C@H](C)c2cccc(C(F)(F)C(C)(C)O)c2F)c2cc3c(cc2n1)N(C)C(=O)C3(CF)CF [Compound 92, (R)-4-((1-(3-(1,1-difluoro-2-hydroxy-2-methylpropyl)-2-fluorophenyl)ethyl)amino)-6,6-bis(fluoromethyl)-2,8-dimethyl-6,8-dihydro-7H-pyrrolo[3,2-g]quinazolin-7-one]
pIC50 [1]: 6.30 to 6.70 | pIC50 [2]: 6.89 to 7.51 | pIC50 [3]: 8.00 to 9.00

COC1(C)C(=O)N(C)c2cc3c(N[C@H](C)c4cccc(C(F)(F)C(C)(C)O)c4F)nc(C)nc3cc21 (stereo partly drawn) [Compound 101, (R&S)-4-(((R)-1-(3-(1,1-difluoro-2-hydroxy-2-methylpropyl)-2-fluorophenyl)ethyl)amino)-8-methoxy-2,6,8-trimethyl-6,8-dihydro-7H-pyrrolo[2,3-g]quinazolin-7-one]
pIC50 [1]: 6.70 to 9.00 | pIC50 [2]: 7.52 to 9.00 | pIC50 [3]: 8.00 to 9.00

CCn1c(=O)n(C)c2cc3nc(C)nc(N[C@H](C)c4cccc(C(F)(F)C(C)(C)O)c4F)c3cc21 [Compound 104, (R)-8-((1-(3-(1,1-difluoro-2-hydroxy-2-methylpropyl)-2-fluorophenyl)ethyl)amino)-1-ethyl-3,6-dimethyl-1H-imidazo[4,5-g]quinazolin-2(3H)-one]
pIC50 [1]: 6.70 to 9.00 | pIC50 [2]: 7.52 to 9.00 | pIC50 [3]: 8.00 to 9.00

Cc1nc(N[C@H](C)c2cccc(C(F)(F)C(C)(C)O)c2F)c2cc3c(cc2n1)n(C)c(=O)n3C(C)C [Compound 105, (R)-8-((1-(3-(1,1-difluoro-2-hydroxy-2-methylpropyl)-2-fluorophenyl)ethyl)amino)-1-isopropyl-3,6-dimethyl-1H-imidazo[4,5-g]quinazolin-2(3H)-one]
pIC50 [1]: 6.70 to 9.00 | pIC50 [2]: 7.52 to 9.00 | pIC50 [3]: 8.00 to 9.00

Cc1nc(N[C@H](C)c2cccc(C(F)(F)C(C)(C)O)c2F)c2cc3c(cc2n1)n(C)c(=O)n3CC(F)F [Compound 106, (R)-8-((1-(3-(1,1-difluoro-2-hydroxy-2-methylpropyl)-2-fluorophenyl)ethyl)amino)-1-(2,2-difluoroethyl)-3,6-dimethyl-1H-imidazo[4,5-g]quinazolin-2(3H)-one]
pIC50 [1]: 6.70 to 9.00 | pIC50 [2]: 7.52 to 9.00 | pIC50 [3]: 8.00 to 9.00

Cc1nc(N[C@H](C)c2cccc(C(F)(F)C(C)(C)O)c2F)c2cc3c(cc2n1)n(C)c(=O)n3C [Compound 109, (R)-8-((1-(3-(1,1-difluoro-2-hydroxy-2-methylpropyl)-2-fluorophenyl)ethyl)amino)-1,3,6-trimethyl-1,3-dihydro-2H-imidazo[4,5-g]quinazolin-2-one]
pIC50 [1]: 6.70 to 9.00 | pIC50 [2]: 7.52 to 9.00 | pIC50 [3]: 8.00 to 9.00

C[C@@H](Nc1nc(C2CC2)nc2cc3c(cc12)C(C)(C)C(=O)N3C)c1cccc(C(F)(F)C(C)(C)O)c1F [Compound 110, (R)-2-cyclopropyl-4-((1-(3-(1,1-difluoro-2-hydroxy-2-methylpropyl)-2-fluorophenyl)ethyl)amino)-6,6,8-trimethyl-6,8-dihydro-7H-pyrrolo[3,2-g]quinazolin-7-one]
pIC50 [1]: 6.30 to 6.70 | pIC50 [2]: 6.89 to 7.51 | pIC50 [3]: 7.60 to 7.96

Cc1nc(N[C@H](C)c2cccc(C(F)(F)C(C)(C)O)c2F)c2cc3c(cc2n1)C1(CCOCC1)C(=O)N3C [Compound 122, (R)-4′-((1-(3-(1,1-difluoro-2-hydroxy-2-methylpropyl)-2-fluorophenyl)ethyl)amino)-2′,6′-dimethyl-2,3,5,6-tetrahydrospiro[pyran-4,8′-pyrrolo[2,3-g]quinazolin]-7′(6′H)-one]
pIC50 [1]: 6.70 to 9.00 | pIC50 [2]: 7.52 to 9.00 | pIC50 [3]: 8.00 to 9.00

CO[C@]1(C)C(=O)N(C)c2cc3c(N[C@H](C)c4cc(N)cc(C(F)(F)F)c4)nc(C)nc3cc21 [Compound 131, (S)-4-(((R)-1-(3-amino-5-(trifluoromethyl)phenyl)ethyl)amino)-8-methoxy-2,6,8-trimethyl-6,8-dihydro-7H-pyrrolo[2,3-g]quinazolin-7-one]
pIC50 [1]: 6.70 to 9.00 | pIC50 [2]: 6.89 to 7.51 | pIC50 [3]: 7.60 to 7.96

Cc1nc(N[C@H](C)c2cc(N)cc(C(F)(F)F)c2)c2cc3c(cc2n1)C1(CCOCC1)C(=O)N3C [Compound 138, (R)-4′-((1-(3-amino-5-(trifluoromethyl)phenyl)ethyl)amino)-2′,6′-dimethyl-2,3,5,6-tetrahydrospiro[pyran-4,8′-pyrrolo[2,3-g]quinazolin]-7′(6′H)-one]
pIC50 [1]: 6.70 to 9.00 | pIC50 [2]: 6.89 to 7.51 | pIC50 [3]: 7.60 to 7.96

CCC1(OC)C(=O)N(C)c2cc3c(N[C@H](C)c4cc(N)cc(C(F)(F)F)c4)nc(C)nc3cc21 (stereo partly drawn) [Compound 139, (R & S)-4-(((R)-1-(3-amino-5-(trifluoromethyl)phenyl)ethyl)amino)-8-ethyl-8-methoxy-2,6-dimethyl-6,8-dihydro-7H-pyrrolo[2,3-g]quinazolin-7-one]
pIC50 [1]: 6.30 to 6.70 | pIC50 [2]: 6.89 to 7.51 | pIC50 [3]: 7.60 to 7.96
